# Values joined by “and” are separate entries in the source; they are usually repeats but may differ in a detail not shown here. Equal values may be shown once.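 Growth conditions: 96-well plates. Treatment: test compound, 48 hours, 5 concentrations. Analysis: linear interpolation between bracketing concentrations; unreached endpoints set to highest concentration. At the GI50, growth is halved. TGI: concentration producing complete growth inhibition.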
# Key:
# Experiment in all cases: DTP human tumour cell line panel, 48 h
# [1] = system: RXF 393 renal
# [2] = system: CCRF-CEM leukemia
# [3] = system: LOX IMVI melanoma
# [4] = system: UACC-257 melanoma
# [5] = system: A498 renal
# [6] = system: OVCAR-4 ovarian
# [7] = system: HL-60(TB) leukemia
# [8] = system: PC-3 prostate
# [9] = system: OVCAR-8 ovarian
# [10] = system: HOP-62 NSCLC
SMILES,GI50 [1],TGI [1],GI50 [2],TGI [2],GI50 [3],TGI [3],GI50 [4],TGI [4],GI50 [5],TGI [5],GI50 [6],TGI [6],GI50 [7],TGI [7],GI50 [8],TGI [8],GI50 [9],TGI [9],GI50 [10],TGI [10]
CCOC(=O)CCCn1c(SC)nc2[nH]cc(-c3ccccc3)c2c1=O,18.2 µM,49 µM,3.01 µM,54.5 µM,11.3 µM,25.8 µM,22.7 µM,44.3 µM,16.5 µM,63.3 µM,31.4 µM,80.8 µM,1.05 µM,15 µM,13.8 µM,35.8 µM,19 µM,58.9 µM,11 µM,40.4 µM
C=CCCCCC/C=C\[C@H](O)C#CC#C/C=C/CO,34.5 µM,> 100 µM,–,–,16.4 µM,29.9 µM,78.9 µM,> 100 µM,20.3 µM,51.9 µM,90.8 µM,> 100 µM,3.64 µM,24.1 µM,18.6 µM,36.1 µM,20.2 µM,52 µM,> 100 µM,> 100 µM
COc1cc(N(CCC#N)CCC#N)ccc1/C(N=Nc1ccc([N+](=O)[O-])cc1)=N/NC(=O)c1cc(Br)ccc1O,30.3 µg/mL,83.8 µg/mL,48.5 µg/mL,> 150 µg/mL,29 µg/mL,110 µg/mL,52.3 µg/mL,> 150 µg/mL,86.6 µg/mL,> 150 µg/mL,21.5 µg/mL,62.4 µg/mL,49.2 µg/mL,> 150 µg/mL,37 µg/mL,> 150 µg/mL,52.8 µg/mL,> 150 µg/mL,–,–
O=c1c2sc(=S)n(-c3ccc(F)cc3)c2ncn1Cc1ccc(F)cc1F,> 100 µM,> 100 µM,> 100 µM,> 100 µM,> 100 µM,> 100 µM,> 100 µM,> 100 µM,> 100 µM,> 100 µM,> 100 µM,> 100 µM,> 100 µM,> 100 µM,80.8 µM,> 100 µM,> 100 µM,> 100 µM,> 100 µM,> 100 µM
CCN(CC)CCC(CNc1ccnc2cc(Cl)ccc12)c1ccc(OC)cc1 (stereo unspecified),3.5 µM and 2.26 µM,15.6 µM and 5.16 µM,13.1 µM and 2.77 µM,55.9 µM and 28.7 µM,1.88 µM and 1.6 µM,4.79 µM and 4.15 µM,2.19 µM and 1.72 µM,3.96 µM and 3.48 µM,3.82 µM and 3.49 µM,13.4 µM and 14.1 µM,3.7 µM and 4.66 µM,20.3 µM and 28.1 µM,6.59 µM and 3.76 µM,25.3 µM and 20.4 µM,19.5 µM and 9.85 µM,76.3 µM and > 100 µM,5.76 µM and 4.78 µM,27.2 µM and 19.3 µM,14.4 µM and 9.7 µM,39.2 µM and 34 µM
N#CC(=C1C=CC(=NO)C=C1)c1ccccc1,1.14 µM,8.63 µM,0.476 µM,2.36 µM,1.17 µM,6.25 µM,2.12 µM,17.8 µM,5.33 µM,22.8 µM,3.02 µM,15.4 µM,1.19 µM,4.1 µM,0.671 µM,17 µM,2.71 µM,12.3 µM,6.31 µM,25.2 µM
CN(C)N=Nc1ccc(NC=O)cc1,–,> 100 µM,–,> 100 µM,–,> 100 µM,–,> 100 µM,–,> 100 µM,–,> 100 µM,–,> 100 µM,–,> 100 µM,–,> 100 µM,–,> 100 µM
O=C1c2cccc(NCCCNCCO)c2C(=O)c2cccc(NCCCNCCO)c21,–,5.54 µM and 5.82 µM,–,7.09 µM and 6.97 µM,–,4.79 µM and 6.13 µM,–,11.2 µM and 14 µM,–,4.66 µM and 7.58 µM,0.747 µM and 2.55 µM,2.59 µM and 6.09 µM,–,3.86 µM and 6.02 µM,–,5.84 µM,–,4.57 µM and 5.66 µM,–,6.38 µM and 6.71 µM
NC(=Nc1c([N+](=O)[O-])cnc2ccccc12)N1CCOCC1,–,–,–,> 100 µM,–,> 100 µM,–,–,–,> 100 µM,–,> 100 µM,–,> 100 µM,–,> 100 µM,–,> 100 µM,–,> 100 µM
COc1ccc2c(c1)CCCC(Br)C2=O (stereo unspecified),–,17.7 µM,–,1.48 µM,–,3.04 µM,–,32.1 µM,–,36.4 µM,–,20.5 µM,–,16.9 µM,–,16.7 µM,–,> 31.9 µM,–,33.4 µM
NC(=O)NC1C(c2ccccc2)=C1c1ccccc1,–,14.8 µM,–,> 100 µM,–,38.4 µM,–,38.4 µM,–,39.9 µM,–,30.7 µM,–,68.3 µM,–,39.4 µM,–,25.5 µM,–,> 100 µM
Cn1nc(N)c2cc([C@@H]3Nc4ccc5[nH]ncc5c4[C@H]4C5CCC(C5)[C@@H]34)ccc21 (stereo partly specified),0.227 µM,0.825 µM,0.377 µM,> 43.4 µM,0.515 µM,15.7 µM,15.9 µM,59.5 µM,0.225 µM,1.15 µM,2.67 µM,> 95 µM,0.381 µM,6.46 µM,0.418 µM,19.8 µM,0.979 µM,> 88.2 µM,0.603 µM,25.5 µM
CCC(C)n1ncn(-c2ccc(N3CCN(c4ccc(OCC5COC(Cn6cncn6)(c6ccc(Cl)cc6Cl)O5)cc4)CC3)cc2)c1=O (stereo unspecified),0.267 µM,0.865 µM,> 100 µM,> 100 µM,9.41 µM,> 100 µM,57.7 µM,> 100 µM,10.8 µM,> 100 µM,35.2 µM,> 100 µM,–,–,3.96 µM,> 100 µM,20.2 µM,> 100 µM,8.97 µM,37 µM
O=C(Nc1ccc(Cl)cc1F)c1ccccc1O,3.23 µM,11.2 µM,3.47 µM,> 100 µM,2.95 µM,10.4 µM,2.9 µM,8.86 µM,2.22 µM,6.29 µM,2.75 µM,> 100 µM,2.53 µM,6.16 µM,2.77 µM,10.9 µM,3.61 µM,> 100 µM,2.74 µM,21.7 µM
C=C(c1nc2ccc(Cl)cc2[nH]c1=O)C(O)c1ccc(C(O)C(=O)c2nc3ccc(Cl)cc3[nH]c2=O)cc1 (stereo unspecified),–,> 100 µM,–,> 100 µM,–,> 100 µM,–,> 100 µM,–,> 100 µM,–,> 100 µM,–,41.8 µM,–,> 100 µM,–,> 100 µM,–,> 100 µM
CCn1c(-c2nonc2N)nc2c(C#CC(C)(C)O)nc(OC[C@H](N)c3ccccc3)cc21,1.28 µM,4.73 µM,3.65 µM,24.9 µM,3.84 µM,7.89 µM,5.18 µM,9.43 µM,0.157 µM,7.63 µM,5.01 µM,9.61 µM,5.23 µM,10.1 µM,3.92 µM,8.87 µM,4.21 µM,9.44 µM,5.54 µM,9.99 µM
O=C(Cc1ccc(/C=C/C(=O)c2ncc[nH]2)cc1)Nc1cc(F)c(F)c(F)c1,3.06 µM,6.56 µM,2.79 µM,13.9 µM,1.56 µM,4.81 µM,4.49 µM,11.9 µM,4.34 µM,9.98 µM,4.81 µM,> 25 µM,4.28 µM,11.2 µM,3.8 µM,9.12 µM,5.58 µM,> 25 µM,3.71 µM,8.12 µM
C=C(CNCc1ccccc1)c1ccc(C(=O)Nc2ccccc2N)cc1,1.87 µM,24.1 µM,–,–,2.45 µM,8.88 µM,1.54 µM,15.5 µM,1.06 µM,7.83 µM,11.7 µM,68.1 µM,1.2 µM,> 100 µM,18.5 µM,> 100 µM,2.17 µM,> 100 µM,4.57 µM,> 100 µM
Cc1ccc(C)c(C2=C(c3cn(C)c4ccccc34)C(=O)NC2=O)c1,5.93 µM,> 25 µM,5.42 µM,> 25 µM,> 19.5 µM,> 25 µM,> 25 µM,> 25 µM,> 12.1 µM,> 22.8 µM,> 25 µM,> 25 µM,6.7 µM,16.2 µM,13.8 µM,> 25 µM,> 24.2 µM,> 25 µM,12.1 µM,> 25 µM
OC[C@H]1C[C@](O)(c2ccc(Cl)cc2)[C@@H](c2ccc(Cl)cc2)O1,20.8 µM,39.7 µM,–,–,17.9 µM,34.8 µM,21.2 µM,44.7 µM,24.6 µM,57.3 µM,32 µM,> 100 µM,17.6 µM,49.2 µM,19.8 µM,57.5 µM,31.2 µM,91.7 µM,20.9 µM,51.8 µM
COc1ccc(CN2C(=O)/C(=C\C(=O)c3ccc(OCCN4CCCCC4)cc3)c3ccccc32)cc1,1.69 µM,3.22 µM,3.01 µM,14 µM,1.65 µM,3.04 µM,16.8 µM,30.8 µM,13.5 µM,27 µM,2.62 µM,8.13 µM,2.35 µM,6.43 µM,2.7 µM,5.55 µM,–,–,20.2 µM,35.4 µM
CS(=O)(=O)Nc1ccc2c(c1)oc(=O)c1ccccc12,–,> 100 µM,–,> 100 µM,–,> 100 µM,–,> 100 µM,–,> 100 µM,–,> 100 µM,–,> 100 µM,–,> 100 µM,–,> 100 µM,–,> 100 µM
O=C(Nc1nc2ccc(C(F)(F)F)cc2s1)c1cc(Cl)ccc1O,1.76 µM,11.1 µM,0.378 µM,96.5 µM,1.33 µM,15.8 µM,0.646 µM,5.53 µM,0.309 µM,2.26 µM,1.87 µM,> 100 µM,1.04 µM,3.7 µM,0.318 µM,11.9 µM,1.12 µM,> 100 µM,2.03 µM,7.09 µM
O=C(CNc1ccc(Cl)cc1)Nc1ccc(-c2nc3ccccc3s2)cc1,4.95 µM,10.3 µM,0.859 µM,> 100 µM,1.44 µM,2.95 µM,7.7 µM,21.6 µM,12.5 µM,25 µM,2.78 µM,19.4 µM,2.23 µM,6.05 µM,1.85 µM,4.41 µM,6.15 µM,17.8 µM,8.62 µM,23.8 µM
O=C1/C(=C/c2ccc(Br)cc2)COc2ccc(O)c(O)c21,1.1 µM,2.43 µM,0.462 µM,> 100 µM,0.261 µM,0.807 µM,1.71 µM,6.78 µM,2.97 µM,7.75 µM,1.31 µM,2.59 µM,0.442 µM,3.28 µM,0.599 µM,2.42 µM,0.675 µM,–,–,–
S=C1NC2(CCCCCC2)NN1c1ccccc1,–,–,–,> 64.9 µM,–,> 100 µM,–,> 100 µM,–,> 100 µM,–,> 100 µM,–,3.64 µM,–,> 100 µM,–,> 100 µM,–,> 22.7 µM
CCN(CC)c1ccc2c(c1)OC(N)=C(C#N)C2c1cc(OC)c2c(c1)OCO2 (stereo unspecified),–,–,0.0308 µM,1.71 µM,0.0577 µM,3.86 µM,0.312 µM,14.5 µM,0.0201 µM,0.0809 µM,0.0754 µM,> 48.6 µM,0.0269 µM,0.141 µM,0.0309 µM,> 100 µM,0.0395 µM,3.53 µM,0.0602 µM,20.3 µM
Cc1nc2c(-c3cnc(N)nc3)nc(N3CCOCC3)nc2n1C(C)C,–,0.611 µM and 0.315 µM,–,–,–,1.56 µM and 6.03 µM,–,–,–,0.156 µM and 0.0587 µM,–,1.99 µM and 0.786 µM,0.222 µM and 0.23 µM,> 5.87 µM and 20.9 µM,–,> 100 µM,–,> 5.51 µM and 4.37 µM,–,3.5 µM and 0.772 µM
C=C1C(=O)O[C@@H]2C[C@@H]1CC/C(C)=C/CC/C(C)=C/CC[C@@]2(C)O,19.1 µM,45.6 µM,–,–,5.49 µM,> 100 µM,17.5 µM,41.9 µM,23.4 µM,41.3 µM,34.6 µM,> 100 µM,3.04 µM,8.95 µM,6.73 µM,21.3 µM,21.7 µM,85.4 µM,–,–
